According to US20250236607A1, “CYCLIN-DEPENDENT KINASE 9 (CDK9) DEGRADERS AND METHODS OF USING THEREOF” (OHIO STATE INNOVATION FOUNDATION, priority 2022, published 2025):
Values after ≈ are worked out from the molar mass of the structure shown. Like-named read-outs stand apart in the source and are kept apart here.

Legend:
[1] = molecular target: T1, CDK9 (Homo sapiens, UniProt P50750+Q96SW2); test: CDK9 degradation potency (DC50) of VIP152-based degraders; assay type: cell-based; conditions: VIP152-based series
T1 construct: endogenous in cells
Source text: (§1) Through amide coupling using I-ethyl-3-carbodiimide hydrochloride (EDC.HCl), the alkynyl derivatives of 4.16, 4.29 and 4.30 were synthesized. Using these VIP152-derivatives, degraders 4.31, 4.33 and 4.34 were synthesized using click chemistry. Degrader 4.32 was also synthesized using amide coupling conditions with (1-[Bis([…])methylene]-1H-1,2,3-triazolo[4,5-b]pyridinium 3-oxide hexafluorophosphate (HATU) and the carboxylic acid 4.28. Scheme 7 illustrates the synthesis of this initial series. The series was evaluated for cytotoxicity against MOLM13 cells (IC50) and for their CDK9 degradation potency (DC50). The results are provided in Table 3.

[2] = Chromatographic log D determination (log k′80); assay type: physicochemical; conditions: chromatographic log D, PLRP-S column, pH 7.72
Method: Chromatographic Log D Determination. Test samples were prepared from 10 mM stock solutions in DMSO, to make 122 μM solutions in acetonitrile. Retention times were determined on a Shimadzu High Performance Liquid Chromatography (HPLC) system with Agilent PLRP-S column, 100 Å, 5 um particle size, 50×4.6 mm (part no.: PL1512-1500) with 1 mL/min flow rate. A 65 mM aqueous solution of ammonium acetate was prepared in water and diluted with acetonitrile to give 0.1% ammonium acetate 20:80 acetonitrile solution with pH 7.72. Eluents were detected with UV spectrophotometry at 337 nm. As a standard set, the retention times of β-estradiol, nifedipine, quinoline, phenol and 2-nitrophenol were determined (log k′80) and the dead time was extrapolated based on the reported log k′80 values originally reported by Caron et. al (log k′80*). The average value of the dead time for the standard set was 0.3001 minutes. Therefore, for consistency, 0.3 minutes was used as the dead time for all test samples. Experiments were performed in triplicate with a maximum percent standard deviation of 6.85%.

[3] = system: MOLM13 cells; test: Cytotoxicity against MOLM13 cells; assay type: cell-based; conditions: MOLM13 cells, read-out: IC50
Source text: as §1

[4] = Kinetic solubility assay; conditions: kinetic solubility, PBS pH 7.4; for solubility at 1.5 h: phosphate buffered saline, pH 7.4, aqueous buffer, kinetic from dmso stock, Solubility (μM)
Method: Kinetic Solubility Assay. Kinetic solubility (KS) was measured according to Millipore protocol PC2445 EN00. Test compounds were weighed and diluted with DMSO to 10 mM. From the stock solutions as well as blank (100% DMSO) was taken 17.5 μL and diluted to 500 μM with 332.5 μL of 100 mM phosphate Buffered Saline (PPBS) at pH 7.4 in a 96-well quartz plate. From the 500 μM solutions was taken 150 μL and dispensed into a 96-well Millipore filter plate (Product number: MSSLBPC10). In the quartz plate, serial dilutions were performed down to 0.5 μM using the 100 mM PBS solution, leaving 100 μL of each test sample at 11 different concentrations, representing standards. These steps were performed in triplicate, at minimum, for each test compound. Both plates were shaken on an orbital shaker at 150 rpm for 1.5 hours. The contents of the filter plate were filtered and 100 μL of the filtrate from each well was dispensed into the quartz plate containing standards. The quartz plate was then analyzed using a UV plate reader where absorbance was measured at the relevant wavelength for each compound. After blank subtraction, for each test sample, solubility was determined based on the optical density of filtered samples and the equations derived from the corresponding linear standard curve.

[5] = system: MV411 cells; test: MTS cytotoxicity assay against MV411 cells; assay type: cell-based; conditions: Homo sapiens, MV4-11
Method: The obtained compounds were tested in biological experiments to measure their potency in inhibiting the growth of AML cells and in their degradation of CDK9. These measurements are reported as half-maximum growth inhibitory and half-maximum degradation concentrations, IC50s and DC50s, respectively. Maximum percent degradation (Dmax) values were also obtained during the CDK9 degradation assessments. The common MTS assay was used to acquire the IC50 values, while the DC50 values were obtained using an automated western blot experiment. These values are presented in Table 2, along with pIC50 (log(nM IC50)) to more accurately reflect the differences/lack thereof in in vitro cytotoxicity. The notation “N:N*” represents the number of linker atoms on each side of the rigid triazole ring for a given degrader. Predicted log D values, calculated using the ChemAxon […], are also provided for each degrader. To characterize the physicochemical properties of the new degrader series, two additional assays were performed: a kinetic aqueous solubility assay and the chromatographic log D experiment described earlier. Aqueous solubility is shown in μM while experimentally determined log D is shown as log k′80. Details regarding the execution of each experiment are provided below.

[6] = Homo sapiens, MOLM-13, cytotoxicity

T1 sequence (P50750 whole entry): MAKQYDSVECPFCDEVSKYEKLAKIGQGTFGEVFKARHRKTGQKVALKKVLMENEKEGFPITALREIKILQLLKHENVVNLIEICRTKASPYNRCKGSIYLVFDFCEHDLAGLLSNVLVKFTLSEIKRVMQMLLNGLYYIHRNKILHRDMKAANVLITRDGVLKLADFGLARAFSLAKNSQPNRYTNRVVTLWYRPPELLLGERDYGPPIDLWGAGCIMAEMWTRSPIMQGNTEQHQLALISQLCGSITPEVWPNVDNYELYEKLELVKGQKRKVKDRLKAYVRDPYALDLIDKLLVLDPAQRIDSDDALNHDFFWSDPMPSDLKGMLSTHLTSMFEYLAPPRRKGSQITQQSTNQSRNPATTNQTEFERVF
T1 sequence (O60563 whole entry partner): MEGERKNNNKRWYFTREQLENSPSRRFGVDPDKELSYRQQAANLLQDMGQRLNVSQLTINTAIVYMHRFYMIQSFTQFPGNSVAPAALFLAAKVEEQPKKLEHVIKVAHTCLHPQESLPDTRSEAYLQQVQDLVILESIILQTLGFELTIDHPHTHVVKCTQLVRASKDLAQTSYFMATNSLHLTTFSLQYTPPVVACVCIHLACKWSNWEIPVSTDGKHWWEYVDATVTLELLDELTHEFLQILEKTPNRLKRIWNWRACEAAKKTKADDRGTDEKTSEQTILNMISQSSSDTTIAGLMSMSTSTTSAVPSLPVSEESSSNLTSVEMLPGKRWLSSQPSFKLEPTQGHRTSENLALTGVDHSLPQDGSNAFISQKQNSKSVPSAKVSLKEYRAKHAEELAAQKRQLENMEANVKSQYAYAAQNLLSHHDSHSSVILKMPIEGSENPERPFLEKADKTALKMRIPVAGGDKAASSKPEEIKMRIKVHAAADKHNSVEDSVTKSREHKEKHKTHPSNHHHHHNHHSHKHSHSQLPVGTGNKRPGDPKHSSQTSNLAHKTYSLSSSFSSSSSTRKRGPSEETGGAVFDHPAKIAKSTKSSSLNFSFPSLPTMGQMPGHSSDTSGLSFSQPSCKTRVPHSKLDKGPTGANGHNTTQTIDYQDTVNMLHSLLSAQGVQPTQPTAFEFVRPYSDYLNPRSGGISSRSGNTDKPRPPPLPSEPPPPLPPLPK
T1 sequence (Q96SW2 whole entry): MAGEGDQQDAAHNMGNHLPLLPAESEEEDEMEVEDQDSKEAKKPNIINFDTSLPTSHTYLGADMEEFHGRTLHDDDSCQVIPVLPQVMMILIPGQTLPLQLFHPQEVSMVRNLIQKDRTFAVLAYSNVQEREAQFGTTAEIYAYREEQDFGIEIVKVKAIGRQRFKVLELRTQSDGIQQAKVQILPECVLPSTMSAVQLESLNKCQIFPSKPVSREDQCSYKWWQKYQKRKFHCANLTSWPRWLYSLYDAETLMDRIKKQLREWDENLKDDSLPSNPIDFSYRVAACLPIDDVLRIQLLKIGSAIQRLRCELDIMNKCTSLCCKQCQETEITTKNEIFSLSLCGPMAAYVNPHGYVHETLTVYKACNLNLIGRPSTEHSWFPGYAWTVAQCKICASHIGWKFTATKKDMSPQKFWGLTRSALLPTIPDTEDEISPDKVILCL
T1 sequence (Q16531 whole entry partner): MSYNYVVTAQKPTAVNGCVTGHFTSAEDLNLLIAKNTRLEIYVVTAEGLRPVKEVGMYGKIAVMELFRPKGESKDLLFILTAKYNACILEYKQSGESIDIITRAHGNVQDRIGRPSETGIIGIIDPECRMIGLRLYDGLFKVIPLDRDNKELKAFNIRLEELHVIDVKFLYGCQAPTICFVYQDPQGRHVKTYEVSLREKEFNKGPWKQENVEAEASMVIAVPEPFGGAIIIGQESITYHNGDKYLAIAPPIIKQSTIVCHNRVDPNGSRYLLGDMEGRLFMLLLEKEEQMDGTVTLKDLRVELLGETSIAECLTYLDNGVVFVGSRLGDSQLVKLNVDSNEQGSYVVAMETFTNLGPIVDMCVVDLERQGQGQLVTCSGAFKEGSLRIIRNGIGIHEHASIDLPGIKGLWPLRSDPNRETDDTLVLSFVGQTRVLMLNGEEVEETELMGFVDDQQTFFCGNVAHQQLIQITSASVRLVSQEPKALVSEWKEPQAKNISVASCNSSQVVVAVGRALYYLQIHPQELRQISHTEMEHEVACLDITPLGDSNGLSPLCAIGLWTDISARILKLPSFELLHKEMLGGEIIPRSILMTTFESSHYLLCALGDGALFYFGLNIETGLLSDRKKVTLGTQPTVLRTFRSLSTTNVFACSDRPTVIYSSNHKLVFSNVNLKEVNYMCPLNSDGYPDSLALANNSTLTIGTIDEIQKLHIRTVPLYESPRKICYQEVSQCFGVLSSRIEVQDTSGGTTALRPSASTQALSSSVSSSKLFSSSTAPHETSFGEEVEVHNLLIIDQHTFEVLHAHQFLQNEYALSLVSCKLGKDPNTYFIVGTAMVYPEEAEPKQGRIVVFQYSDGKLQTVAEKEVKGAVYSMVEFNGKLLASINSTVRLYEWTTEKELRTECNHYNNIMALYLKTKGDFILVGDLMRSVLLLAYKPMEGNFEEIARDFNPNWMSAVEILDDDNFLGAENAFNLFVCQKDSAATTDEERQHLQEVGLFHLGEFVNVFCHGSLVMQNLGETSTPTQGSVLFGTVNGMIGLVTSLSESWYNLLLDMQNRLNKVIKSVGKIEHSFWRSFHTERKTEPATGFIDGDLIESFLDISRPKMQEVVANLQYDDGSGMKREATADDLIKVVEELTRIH

| SMILES | DC50 [1] [nM] | logk′80 [2] | Solubility [4] [µM] | solubility at 1.5 h [4] [µM] | IC50 [3, 6] [nM] | IC50 ([3]; cytotoxicity) [nM] | EC50 ([5]; Table 1, cytotoxicity MV411 cells) [nM] | IC50 ([5]; defined as log(nM IC50), MV411, read-out: pIC50 (converted)) [nM] | IC50 ([5]; growth inhibition, MV411 cells, MTS, read-out: IC50) [nM] |
| --- | --- | --- | --- | --- | --- | --- | --- | --- | --- |
| COc1cc(F)ccc1-c1cc(Nc2cc(CS(C)(=O)=NC(=O)CCc3cn(CCCOc4cccc5c4C(=O)N(C4CCC(=O)NC4=O)C5=O)nn3)ccn2)ncc1F (stereo not drawn) [Compound 4.33, 3-(1-(3-((2-(2,6-dioxopiperidin-3-yl)-1,3-dioxoisoindolin-4-yl)oxy)propyl)-1H-1,2,3-triazol-4-yl)-N-(((2-((5-fluoro-4-(4-fluoro-2-methoxyphenyl)pyridin-2-yl)amino)pyridin-4-yl)methyl)(methyl)(oxo)-16-sulfaneylidene)propenamide] | 170 | 0.15 | – | – | 190 | – | – | – | – |
| COc1cc(F)ccc1-c1cc(Nc2cc(CS(C)(=O)=NC(=O)CCCCCCCCCCNC(=O)CNc3cccc4c3C(=O)N(C3CCC(=O)NC3=O)C4=O)ccn2)ncc1F (stereo not drawn) [Compound 4.32, 11-(2-((2-(2,6-dioxopiperidin-3-yl)-1,3-dioxoisoindolin-4-yl)amino)acetamido)-N-(((2-((5-fluoro-4-(4-fluoro-2-methoxyphenyl)pyridin-2-yl)amino)pyridin-4-yl)methyl)(methyl)(oxo)-16-sulfaneylidene)undecanamide] | 120 | 0.28 | – | – | 140 | – | – | – | – |
| COc1cc(F)ccc1-c1cc(Nc2cc(CS(C)(=O)=NC(=O)C3CCCN(Cc4cn(CC(=O)N5CCN(CC#Cc6cccc7c6C(=O)N(C6CCC(=O)NC6=O)C7=O)CC5)nn4)C3)ccn2)ncc1F (stereo not drawn) [Compound 4.64, 1-((1-(2-(4-(3-(2-(2,6-dioxopiperidin-3-yl)-1,3-dioxoisoindolin-4-yl)prop-2-yl-1-yl)piperazin-1-yl)-2-oxoethyl)-1H-1,2,3-triazol-4-yl)methyl)-N-(((2-((5-fluoro-4-(4-fluoro-2-methoxyphenyl)pyridin-2-yl)amino)pyridin-4-yl)methyl)(methyl)(oxo)-16-sulfaneylidene)piperidine-3-carboxamide] | 780 | 0.14 | 33.0 (≈ 33.6 µg/mL) | – | – | 850 | – | – | – |
| COc1cc(F)ccc1-c1cc(Nc2cc(CS(C)(=O)=NC(=O)CN3CCN(Cc4cn(CC(=O)N5CCN(CC#Cc6cccc7c6C(=O)N(C6CCC(=O)NC6=O)C7=O)CC5)nn4)CC3)ccn2)ncc1F (stereo not drawn) [Compound 4.51, 2-(4-((1-(2-(4-(3-(2-(2,6-dioxopiperidin-3-yl)-1,3-dioxoisoindolin-4-yl)prop-2-yn-1-yl)piperazin-1-yl)-2-oxoethyl)-1H-1,2,3-triazol-4-yl)methyl)piperazin-1-yl)-N-(((2-((5-fluoro-4-(4-fluoro-2-methoxyphenyl)pyridin-2-yl)amino)pyridin-4-yl)methyl)(methyl)(oxo)-16-sulfaneylidene)acetamide] | 370 | 0.09 | 14.8 (≈ 15.3 µg/mL) | – | – | 1540 | – | – | – |
| O=C(NC1CCNCC1)c1n[nH]cc1NC(=O)c1c(Cl)cccc1Cl [AT7519, 4-(2,6-dichlorobenzamido)-N-(piperidin-4-yl)-1H-pyrazole-3-carboxamide, reference compound] | – | – | – | – | – | – | 200 | 126 | 119 |
| COc1cc(F)ccc1-c1cc(Nc2cc(CS(C)(=O)=NC(=O)CN3CCN(Cc4cn(C5CN(c6cccc7c6C(=O)N(C6CCC(=O)NC6=O)C7=O)C5)nn4)CC3)ccn2)ncc1F (stereo not drawn) [Compound 4.50, 2-(4-((1-(1-(2-(2,6-dioxopiperidin-3-yl)-1,3-dioxoisoindolin-4-yl)azetidin-3-yl)-11H-1,2,3-triazol-4-yl)methyl)piperazin-1-yl)-N-(((2-((5-fluoro-4-(4-fluoro-2-methoxyphenyl)pyridin-2-yl)amino)pyridin-4-yl)methyl)(methyl)(oxo)-16-sulfaneylidene)acetamide] | 930 | – | 13.9 (≈ 12.8 µg/mL) | ~15 (≈ 13.8 µg/mL) | 1540 | – | – | – | – |
| COc1cc(F)ccc1-c1cc(Nc2cc(CS(C)(=O)=NC(=O)CN3CCC(c4cn(CC(=O)N5CCN(CC#Cc6cccc7c6C(=O)N(C6CCC(=O)NC6=O)C7=O)CC5)nn4)CC3)ccn2)ncc1F (stereo not drawn) [Compound 4.61, 2-(4-(1-(2-(4-(3-(2-(2,6-dioxopiperidin-3-yl)-1,3-dioxoisoindolin-4-yl)prop-2-yn-1-yl)piperazin-1-yl)-2-oxoethyl)-1H-1,2,3-triazol-4-yl)piperidin-1-yl)-N-(((2-((5-fluoro-4-(4-fluoro-2-methoxyphenyl)pyridin-2-yl)amino)pyridin-4-yl)methyl)(methyl)(oxo)-16-sulfaneylidene)acetamide] | 170 | – | – | 1.8 (≈ 1.83 µg/mL) | 340 | – | – | – | – |

Now from value to molecule, other results behind:

| DC50 [1] [nM] | logk′80 [2] | Solubility [4] [µM] | solubility at 1.5 h [4] [µM] | SMILES | IC50 [3, 6] [nM] | IC50 ([3]; cytotoxicity) [nM] | EC50 ([5]; Table 1, cytotoxicity MV411 cells) [nM] | IC50 ([5]; defined as log(nM IC50), MV411, read-out: pIC50 (converted)) [nM] | IC50 ([5]; growth inhibition, MV411 cells, MTS, read-out: IC50) [nM] |
| --- | --- | --- | --- | --- | --- | --- | --- | --- | --- |
| 1620 | 0.18 | – | 4.8 (≈ 4.81 µg/mL) | COc1cc(F)ccc1-c1cc(Nc2cc(CS(C)(=O)=NC(=O)C3CCCN(Cc4cn(CC(=O)N5CCC(C#Cc6cccc7c6C(=O)N(C6CCC(=O)NC6=O)C7=O)CC5)nn4)C3)ccn2)ncc1F (stereo not drawn) [Compound 4.75, 1-({1-[2-(4-{2-[2-(2,6-dioxopiperidin-3-yl)-1,3-dioxo-2,3-dihydro-1H-isoindol-4-yl]ethynyl}piperidin-1-yl)-2-oxoethyl]-1H-1,2,3-triazol-4-yl}methyl)-N-{[1 (2-{[5-fluoro-4-(4-fluoro-2-methoxyphenyl)pyridin-2-yl]amino}pyridin-4-yl)methyl](methyl)oxo-λ^6-sulfanylidene}piperidine-3-carboxamide] | 1480 | – | – | – | – |
| 260 | 0.09 | – | 3.8 (≈ 3.78 µg/mL) | COc1cc(F)ccc1-c1cc(Nc2cc(CS(C)(=O)=NC(=O)CCC(=O)N3CC(N4CCC(Cn5cc(COc6cccc7c6C(=O)N(C6CCC(=O)NC6=O)C7=O)nn5)CC4)C3)ccn2)ncc1F (stereo not drawn) [Compound 4.91] | 590 | – | – | – | – |
| 240 | 0.19 | 4.7 (≈ 4.47 µg/mL) | – | COc1cc(F)ccc1-c1cc(Nc2cc(CS(C)(=O)=NC(=O)CN3CCC(c4cn(CC5CCN(c6cccc7c6C(=O)N(C6CCC(=O)NC6=O)C7=O)CC5)nn4)CC3)ccn2)ncc1F (stereo not drawn) [Compound 4.76, 2-{[4-[1-({1-[2-(2,6-dioxopiperidin-3-yl)-1,3-dioxo-2,3-dihydro-1H-isoindol-4-yl]piperidin-4-yl}methyl)-1H-1,2,3-triazol-4-yl]piperidin-1-yl}-N-{[2-{[5-fluoro-4-(4-fluoro-2-methoxyphenyl)pyridin-2-yl]amino}pyridin-4-yl)methyl](methyl)oxoλ^6-sulfanylidene}acetamide] | – | 300 | – | – | – |
| 260 | – | – | 8.9 (≈ 8.46 µg/mL) | COc1cc(F)ccc1-c1cc(Nc2cc(CS(C)(=O)=NC(=O)C3CCCN(Cc4cn(CC5CCN(c6cccc7c6C(=O)N(C6CCC(=O)NC6=O)C7=O)CC5)nn4)C3)ccn2)ncc1F (stereo not drawn) [Compound 4.77, 1˜ {[1-({1-[2-(2,6-dioxopiperidin-3-yl)-1,3-dioxo-2,3-dihydro-1H-isoindol-4-yl]piperidin-4-yl}methyl)-1H-1,2,3-triazol-4-yl]methyl}-N-{[(2-{[5-fluoro-4-(4-fluoro-2-methoxyphenyl)pyridin-2-yl]amino}pyridin-4-yl)methyl](methyl)oxo-λ^6-sulfanylidene}piperidine-3-carboxamide] | 640 | – | – | – | – |
